The values below are quoted from earlier work in paper PMC6167001 (ACS Omega, 2018).

Data set [1] deals with HIV-1 mutants bearing L76V. The following applies: inclusion of L76V in mutants bearing three other resistance mutations.
Data set [2] has as its target PRL76V (HIV-1 protease with mutation L76V).

Regarding `Cc1cccc(C)c1OCC(=O)N[C@@H](Cc1ccccc1)[C@@H](O)C[C@H](Cc1ccccc1)NC(=O)[C@H](C(C)C)N1CCCNC1=O` [Compound 2, lopinavir], the “increase in resistance associated with L76V” value in data set [1] was “eightfold”.
As for `CC(C)(C)NC(=O)[C@@H]1C[C@@H]2CCCC[C@@H]2CN1C[C@@H](O)[C@H](Cc1ccccc1)NC(=O)[C@H](CC(N)=O)NC(=O)c1ccc2ccccc2n1` [Compound 6, saquinavir], the “increase in susceptibility associated with L76V” value in data set [1] is “eightfold”.
With `COc1ccc(S(=O)(=O)N(C[C@H]2CCC(=O)N2)C[C@@H](O)[C@H](Cc2ccccc2)NC(=O)O[C@@H]2C[C@@H]3CCO[C@@H]3C2)cc1` [GRL-02031], the “increase in inhibition constant (Ki) for PRL76V in comparison to PRWT” value in data set [2] was “twofold”.
